Results from ChEMBL document CHEMBL1201862, “PubChem BioAssay data set” (2004).
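Briefly, cells in 96-well plates were exposed to five compound concentrations for 48 h, and endpoints were estimated by linear interpolation. GI50 is the concentration that inhibits growth by half.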 Active and inactive are the calls of the source. Cut-off read from the data, not from the text of the source: active = GI50 up to about 1.1 µM and inactive = higher.

Legend:
Test in all cases: inhibition of tumour cell growth, NCI panel, 48 h
786-0 = system: 786-0
A549 = system: A549
ACHN = system: ACHN
BT-549 = system: BT-549
EKVX = system: EKVX
HCC 2998 = system: HCC 2998
HCT-116 = system: HCT-116
HCT-15 = system: HCT-15
HOP-62 = system: HOP-62
K562 = system: K562
KM12 = system: KM12
LOX IMVI = system: LOX IMVI
MDA-N = system: MDA-N
MOLT-4 = system: MOLT-4
NCI-H460 = system: NCI-H460
PC-3 = system: PC-3
SK-OV-3 = system: SK-OV-3
TK-10 = system: TK-10
A498 = system: A498
SNB-75 = system: SNB-75

| Structure (SMILES) | GI50 (786-0) | GI50 (A549) | GI50 (ACHN) | GI50 (BT-549) | GI50 (EKVX) | GI50 (HCC 2998) | GI50 (HCT-116) | GI50 (HCT-15) | GI50 (HOP-62) | GI50 (K562) | GI50 (KM12) | GI50 (LOX IMVI) | GI50 (MDA-N) | GI50 (MOLT-4) | GI50 (NCI-H460) | GI50 (PC-3) | GI50 (SK-OV-3) | GI50 (TK-10) | GI50 (A498) | GI50 (SNB-75) |
| --- | --- | --- | --- | --- | --- | --- | --- | --- | --- | --- | --- | --- | --- | --- | --- | --- | --- | --- | --- | --- |
| CC(CCOc1c2ccoc2cc2oc(=O)ccc12)C1=CC(=O)C(C)(C)O1 (stereo not given) | > 100 µM (inactive) | > 100 µM (inactive) | > 100 µM (inactive) | 71 µM (inactive) | > 100 µM (inactive) | > 100 µM (inactive) | > 100 µM (inactive) | > 100 µM | > 100 µM (inactive) | > 100 µM (inactive) | > 100 µM (inactive) | > 100 µM (inactive) | > 100 µM (inactive) | > 100 µM (inactive) | > 100 µM (inactive) | > 100 µM (inactive) | > 100 µM (inactive) | > 100 µM (inactive) | – | – |
| O=C(Cn1c(-c2ccccc2)cc2ccccc21)N1CCOCC1 | 41.4 µM (inactive) | > 100 µM (inactive) | > 100 µM (inactive) | – | > 100 µM (inactive) | > 100 µM (inactive) | > 100 µM (inactive) | > 100 µM | 32.7 µM (inactive) | > 100 µM (inactive) | > 100 µM (inactive) | > 100 µM (inactive) | > 100 µM (inactive) | > 100 µM (inactive) | > 100 µM (inactive) | 61.1 µM (inactive) | > 100 µM (inactive) | > 100 µM (inactive) | > 100 µM (inactive) | – |
| COc1cc(/C=N/c2ccc(Oc3ccc(Cl)cc3)c(Cl)c2)cc(OC)c1OC | 13.6 µM (inactive) | 18.5 µM (inactive) | 29.1 µM (inactive) | 15.9 µM (inactive) | 21.1 µM (inactive) | 19.3 µM (inactive) | 13.8 µM (inactive) | 19.5 µM | 23.8 µM (inactive) | – | 21.3 µM (inactive) | 16.2 µM (inactive) | 22.6 µM (inactive) | 24.9 µM (inactive) | 19.3 µM (inactive) | 14.3 µM (inactive) | > 10 µM (inactive) | 32.9 µM (inactive) | – | 23.7 µM (inactive) |
| Clc1ccc(Cl)c(SCCCN2CCNCC2)c1 | 20.1 µM (inactive) | 20.6 µM (inactive) | 15.1 µM (inactive) | 17.1 µM (inactive) | 16.9 µM (inactive) | 3.61 µM (inactive) | 18.3 µM (inactive) | 18.7 µM | 18 µM (inactive) | 14.6 µM (inactive) | 25.5 µM (inactive) | 14.9 µM (inactive) | – | 17.1 µM (inactive) | 18.4 µM (inactive) | 14.6 µM (inactive) | 15.1 µM (inactive) | 16.5 µM (inactive) | 13.7 µM (inactive) | 13.4 µM (inactive) |
| CC1(C)N=C(/C=N/O)C(C)(C)N1O | > 100 µM (inactive) | > 100 µM (inactive) | > 100 µM (inactive) | – | > 100 µM (inactive) | > 100 µM (inactive) | > 100 µM (inactive) | > 100 µM | > 100 µM (inactive) | > 100 µM (inactive) | > 100 µM (inactive) | > 100 µM (inactive) | > 100 µM (inactive) | > 100 µM (inactive) | > 100 µM (inactive) | > 100 µM (inactive) | > 100 µM (inactive) | > 100 µM (inactive) | > 100 µM (inactive) | > 100 µM (inactive) |
| O=C1/C(=C/c2ccc(O)cc2)NC(=S)N1CN1CCCCC1 | 62.2 µM (inactive) | > 100 µM (inactive) | 45.7 µM (inactive) | – | > 100 µM (inactive) | – | 45.8 µM (inactive) | 31.8 µM | > 100 µM (inactive) | 72.6 µM (inactive) | > 100 µM (inactive) | 40.1 µM (inactive) | > 100 µM (inactive) | 62.7 µM (inactive) | – | 53.2 µM (inactive) | > 100 µM (inactive) | 94 µM (inactive) | 96.6 µM (inactive) | > 100 µM (inactive) |
| CNc1nc(N)c(N=O)c(Nc2ccc(Br)cc2)n1 | > 100 µM (inactive) | > 100 µM (inactive) | 53.2 µM (inactive) | > 100 µM (inactive) | 13.7 µM (inactive) | > 100 µM (inactive) | > 100 µM (inactive) | > 100 µM | > 100 µM (inactive) | > 100 µM (inactive) | > 100 µM (inactive) | > 100 µM (inactive) | > 100 µM (inactive) | 68.4 µM (inactive) | > 100 µM (inactive) | > 100 µM (inactive) | – | > 100 µM (inactive) | – | 68.5 µM (inactive) |
| COC(=O)[C@]1(C)CCC[C@@]2(C)C1CC[C@]13C=C(C(C)C)[C@H](CC21)CC3(Cl)C#N (stereo not given in full) | > 100 µM (inactive) | 57.5 µM (inactive) | 43.9 µM (inactive) | 35.6 µM (inactive) | 31.5 µM (inactive) | 29.8 µM (inactive) | 14.9 µM (inactive) | 44.7 µM | 36.3 µM (inactive) | 19.5 µM (inactive) | 38.1 µM (inactive) | – | – | 20 µM (inactive) | 41.7 µM (inactive) | 18.9 µM (inactive) | > 100 µM (inactive) | > 100 µM (inactive) | > 100 µM (inactive) | 4.24 µM (inactive) |
| CC1=NN(c2cccc(Cl)c2)C(=N/c2nc3ccccc3s2)/C1=C\c1cccs1 | 87.3 µM (inactive) | – | 39 µM (inactive) | – | 24.1 µM (inactive) | 35 µM (inactive) | 44.8 µM (inactive) | 32.8 µM | 19.5 µM (inactive) | 32.7 µM (inactive) | 43.8 µM (inactive) | 40.7 µM (inactive) | 73.8 µM (inactive) | 26.8 µM (inactive) | 35.6 µM (inactive) | 32.1 µM (inactive) | 25.9 µM (inactive) | 45.7 µM (inactive) | 28.8 µM (inactive) | 28 µM (inactive) |
| C[C@H]1CC[C@@H]2[C@@H](C)C[C@H]3[C@@H]4C(C)(C)OC(=O)[C@]4(C)C(=O)[C@@]23C1=O | > 100 µM (inactive) | > 100 µM (inactive) | > 100 µM (inactive) | > 100 µM (inactive) | > 100 µM (inactive) | > 100 µM (inactive) | > 100 µM (inactive) | > 100 µM | > 100 µM (inactive) | > 100 µM (inactive) | > 100 µM (inactive) | > 100 µM (inactive) | > 100 µM (inactive) | > 100 µM (inactive) | > 100 µM (inactive) | – | > 100 µM (inactive) | > 100 µM (inactive) | > 100 µM (inactive) | > 100 µM (inactive) |
| COc1ccc(NC(C)=O)cc1C1CCC(=O)N1 (stereo not given) | > 100 µM (inactive) | > 100 µM (inactive) | > 100 µM (inactive) | – | > 100 µM (inactive) | > 100 µM (inactive) | > 100 µM (inactive) | > 100 µM | > 100 µM (inactive) | > 100 µM (inactive) | > 100 µM (inactive) | > 100 µM (inactive) | – | > 100 µM (inactive) | > 100 µM (inactive) | > 100 µM (inactive) | > 100 µM (inactive) | > 100 µM (inactive) | > 100 µM (inactive) | > 100 µM (inactive) |
| NCc1ccc(-c2ccc(CN)s2)s1 | > 100 µM (inactive) | > 100 µM (inactive) | > 100 µM (inactive) | – | > 100 µM (inactive) | > 100 µM (inactive) | > 100 µM (inactive) | > 100 µM | > 100 µM (inactive) | > 100 µM (inactive) | > 100 µM (inactive) | > 100 µM (inactive) | > 100 µM (inactive) | > 100 µM (inactive) | – | > 100 µM (inactive) | 83.8 µM (inactive) | 11.3 µM (inactive) | 1.22 µM (inactive) | > 100 µM (inactive) |
| O=[N+]([O-])c1cccc2nccc(NCCN3CCOCC3)c12 | 25.2 µM (inactive) | 18.2 µM (inactive) | 22.4 µM (inactive) | – | 10.7 µM (inactive) | 11.5 µM (inactive) | 13.4 µM (inactive) | 9.35 µM | 15.5 µM (inactive) | 11.8 µM (inactive) | 10.5 µM (inactive) | 13.4 µM (inactive) | 16.7 µM (inactive) | 8.43 µM (inactive) | 6.87 µM (inactive) | 9.64 µM (inactive) | 35.2 µM (inactive) | 23.7 µM (inactive) | 13.2 µM (inactive) | 16.5 µM (inactive) |
| NNC(=S)N/N=C(\c1nc2ccc(Cl)cc2nc1O)C(O)c1cccc([N+](=O)[O-])c1 (stereo not given) | > 43 µM (inactive) | > 100 µM (inactive) | > 100 µM (inactive) | – | > 100 µM (inactive) | > 100 µM (inactive) | > 31.6 µM (inactive) | > 42.1 µM | > 38.9 µM (inactive) | > 45.3 µM (inactive) | > 100 µM (inactive) | > 40.5 µM (inactive) | – | > 100 µM (inactive) | > 75 µM (inactive) | – | > 100 µM (inactive) | > 100 µM (inactive) | > 100 µM (inactive) | > 100 µM (inactive) |
| NCCCCN(CCCN)Cc1ccc2ccccc2c1 | 34.2 µM (inactive) | 51.9 µM (inactive) | 22.8 µM (inactive) | 90.4 µM (inactive) | 21.3 µM (inactive) | 10.6 µM (inactive) | 36.7 µM (inactive) | > 100 µM | – | > 100 µM (inactive) | 27.4 µM (inactive) | 29.2 µM (inactive) | 21.3 µM (inactive) | 34.8 µM (inactive) | 15.7 µM (inactive) | – | 96.4 µM (inactive) | > 100 µM (inactive) | 20.7 µM (inactive) | 2.94 µM (inactive) |
| CN(C)c1cccc(NC2=NCCO2)c1 | 46.6 µM (inactive) | > 100 µM (inactive) | 90.4 µM (inactive) | – | 78.5 µM (inactive) | 89.9 µM (inactive) | 35.9 µM (inactive) | 45.1 µM | 81.1 µM (inactive) | 30.8 µM (inactive) | 40.5 µM (inactive) | 31.9 µM (inactive) | 17.5 µM (inactive) | 46.7 µM (inactive) | 32.4 µM (inactive) | 31 µM (inactive) | – | > 100 µM (inactive) | 74.5 µM (inactive) | 41.2 µM (inactive) |
